Results as given in PMC10401651, “Characterization of Uranyl (UO2^2+) Ion Binding to Amyloid Beta (Aβ) Peptides: Effects on Aβ Structure and Aggregation” (ACS Chemical Neuroscience, 2023).
Values joined by “and” are separate entries in the source; they are usually repeats but may differ in a detail not shown here. Equal entries are not always repeated. Where two headings read alike, the source gives them in different places.

How the values were obtained:
[1] = target: T1, Aβ40 peptides (Homo sapiens, UniProt P05067); assay: Fluorescence measurements of dityrosine cross-link formation; format: biochemical; details: 100 μM uranyl acetate, 10 μM Aβ40, 20 mM MES pH 7.3, 24 h, room temperature
T1 construct: namely, the Aβ40 peptide; purchased AlexoTech AB (Umeå, Sweden); host or cells: recombinant
Description: Two samples of Aβ40 peptides were studied. The control sample contained 100 μM EDTA to remove possible contaminating metal ions that could promote dityrosine formation. […] For both samples, the fluorescence spectra are virtually identical before and after 24 h of incubation (Figure 6). Specifically, no peak around 410 nm, indicative of dityrosine,[129],[130] has emerged.
Fluorescence emission spectra between 330 and 480 nm (excitation at 315 nm) were recorded at room temperature with a Jobin Yvon Horiba Fluorolog 3 fluorescence spectrometer (Longjumeau, France) for two samples of 10 μM Aβ40 peptide in 20 mM MES buffer, pH 7.3. […] The control sample contained 100 μM of the chelator EDTA to remove any free metal ions. All measurements were conducted in triplicate using a quartz cuvette with a 4 mm path length and containing a 0.7 mL liquid sample. Spectra were recorded after 0 and 24 h of incubation, during which the samples were kept at room temperature without agitation or other treatment.

[2] = target: T2, Aβ40 (H6A, H13A, and H14A) triple-mutant, Aβ40 (NoHis) (Homo sapiens, UniProt P05067, H677A/H684A/H685A); assay: Binding affinity via Tyr10 fluorescence quenching, Aβ40 (NoHis) mutant; details: 20 μM Aβ40 (NoHis)
T2 construct: the Aβ40 (H6A, H13A, and H14A) triple-mutant; purchased AlexoTech AB (Umeå, Sweden); host or cells: recombinant

[3] = target: T1, Aβ40 peptides; assay: ThT fluorescence measurements of Aβ40 aggregation kinetics; format: biochemical; details: for t1/2 (aggregation halftime): 15 h; for ΔThT (increase in ThT fluorescence): 20 μM Aβ40, pH 7.3, 37 °C, end of 15 h
Description: Fitting eq 1 to the ThT fluorescence curves in Figure 1 produced the kinetic parameters Tlag and t1/2 (Table 1). […] The two samples with 0 and 0.04 μM uranyl both have aggregation half-times of around 3 h and lag times of around 2 h under the experimental conditions (Table 1). The aggregation of the 0.2 μM uranyl sample is clearly slower, with a half-time of almost 7 h and a lag time of around 5 h.
Thioflavin T is a benzothiazole dye that increases in fluorescence upon binding to amyloid aggregates[116] and is therefore used to monitor the formation of amyloid aggregates. The ThT dye was excited at 440 nm, and ThT fluorescence emission at 480 nm was measured every 5 min. Before each measurement, the plate was shaken in orbital mode for 140 s at 200 rpm. The samples were incubated for a total of 15 h, and the assay was repeated three times with four replicates of each condition. To determine kinetic aggregation parameters, the data was fitted to eq 1: [drawing 1] 1 Here, F0 and F∞ are the intercepts of the initial and final fluorescence intensity baselines, m0 and m∞ are the slopes of the initial and final baselines, t1/2 is the time needed to reach halfway through the elongation phase (i.e., aggregation half-time), and τ is the elongation time constant.[116]

[4] = target: T1, Aβ40 peptides; assay: CD spectroscopy on the Aβ40 secondary structure
Description: The CD spectra for Aβ40 monomers in aqueous buffer display spectra with minima around 196–198 nm (Figure 5B,E), which is typical for a random coil conformation. […] The difference spectrum is not conclusive but might represent β-sheet conformation (Figure 5C).
CD measurements were carried out on a Chirascan CD spectrometer from Applied Photophysics Ltd. (U.K). Samples containing 600 μL of 10 μM Aβ40 peptide in 20 mM phosphate buffer, at either pH 7.3 or pH 5.1, were placed in a quartz cuvette with a 2 mm pathlength. CD spectra were recorded at 20 °C between 192 and 250 nm using steps of 0.5 nm and a sampling time of 5 s per data point. […] All data was processed with the Chirascan Pro-Data v.4.4.1 software (Applied Photophysics Ltd., U.K.), including smoothing with a ten-point smoothing filter. 50 mM SDS detergent was added to some of the samples as SDS micelles constitute a simple model for bio-membranes.[125],[126] Aβ peptides are known to insert their central and C-terminal segments as α-helices into SDS micelles, while the N-terminal Aβ segment remains unstructured outside the micelle surface.[19],[125] Because the critical micelle concentration for SDS is 8.2 mM in water at 25 °C,[152] micelles clearly formed under the experimental conditions. With approximately 62–65 SDS molecules per micelle,[156] 50 mM SDS yields a micelle concentration slightly below 1 mM, i.e., much higher than the concentration of Aβ peptides. This means that each micelle will generally contain no more than one Aβ peptide, which effectively prevents Aβ aggregation and ensures that uranyl interactions are with monomeric Aβ peptides. […] Even though 50 mM SDS would efficiently denature most folded proteins, such denaturing effects are not relevant for small intrinsically disordered peptides such as Aβ (in monomeric form).

[5] = 0.04 μM uranyl acetate, 20 μM Aβ40, 20 mM MES pH 7.3, 37 °C
[6] = 0.2 μM uranyl acetate, 20 μM Aβ40, 20 mM MES pH 7.3, 37 °C
[7] = 0.2 μM uranyl acetate, 20 μM Aβ40, 20 mM MES pH 7.3, 37 °C, listed as uranyl

T2 sequence (P05067 672-711 H677A/H684A/H685A): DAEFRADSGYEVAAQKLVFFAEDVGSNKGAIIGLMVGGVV
T1 sequence (P05067 672-711 limits assumed): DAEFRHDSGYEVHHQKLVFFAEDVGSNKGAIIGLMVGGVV

Structure (SMILES): CC(=O)[O-].CC(=O)[O-].[O]=[U+2]=[O] [uranyl ions, uranyl acetate]
- formation of dityrosine cross-links [1]: do not induce the formation of dityrosine cross-links
- Kd ([2]; pH 5.1 + 50 mM SDS, read-out: KD^App, single replicates): 22.3 µM and 30.7 µM and 27.9 µM
- Kd ([2]; pH 5.1 + 50 mM SDS, three replicates, read-out: KD^App, average): 27 ± 4 µM
- Kd ([2]; pH 5.1, 20 mM MES, read-out: KD^App, single replicates): 2.3 µM and 2.8 µM and 4 µM
- Kd ([2]; pH 5.1, 20 mM MES, three replicates, read-out: KD^App, average): 3 ± 1 µM
- Tlag (lag time) [3, 5]: 2.0 ± 1.1 h
- t1/2 (aggregation halftime) [3, 5]: around 3 h
- Tlag (lag time) ([3]; 0.04 μM uranyl acetate, 20 μM Aβ40, 20 mM MES pH 7.3, 37 °C, listed as uranyl): around 2 h
- ΔThT (increase in ThT fluorescence) ([3]; 0.04 μM uranyl acetate): 1286 a.u.
- Tlag (lag time) [3, 6]: 5.2 ± 0.9 h
- t1/2 (aggregation halftime) [3, 6]: 6.7 ± 1.4 h
- t1/2 (aggregation halftime) [3, 7]: ~7 h
- Tlag (lag time) [3, 7]: around 5 h
- ΔThT (increase in ThT fluorescence) ([3]; 0.2 μM uranyl acetate): 958 a.u.
- ΔThT (increase in ThT fluorescence) ([3]; 0.4 μM uranyl acetate): 101 a.u.
- lag time, visually estimated ([3]; 0.4 μM uranyl, 20 μM Aβ40, 20 mM MES pH 7.3, 37 °C): approximately 9 h
- ΔThT (increase in ThT fluorescence) ([3]; 2 μM uranyl acetate): 0 a.u.
- ΔThT (increase in ThT fluorescence) ([3]; 20 μM uranyl acetate): 0 a.u.
- Aβ40 aggregation seen in ThT curves ([3]; 2 and 20 μM uranyl, 20 μM Aβ40, 15 h): no obvious signs of aggregation after 15 h
- structural transition of Aβ40 (CD) ([4]; 50 mM SDS micelles, pH 5.1, 10 μM Aβ40): structural conversion from α-helix to a random coil
- changes in the Aβ40 CD spectrum ([4]; 50 mM SDS micelles, pH 7.3, 10 μM Aβ40): no changes at all
- structural transition of Aβ40 (CD) ([4]; aqueous buffer pH 5.1, 10 μM Aβ40, 2-256 μM uranyl acetate, 20 °C): conversion from random coil to β-sheet
- structural effect on Aβ40 (CD), compared with pH 5.1 ([4]; aqueous buffer pH 7.3, 10 μM Aβ40, 2-256 μM uranyl acetate, 20 °C): weaker
